Laboratory results published in publication PMC11945486, “TAS1R2/TAS1R3 Single-Nucleotide Polymorphisms Affect Sweet Taste Receptor Activation by Sweeteners: The SWEET Project” (Nutrients, 2025).
No end group written: not given here.

T1: human TAS1R2-I234V/TAS1R3-WT (Homo sapiens, UniProt Q7RTX0+Q8TE23, I234V)
T1 construct: expressed in transfected cells; host or cells: HEK293T-Gα16gust44
T1 sequence (Q8TE23 20-839 I234V): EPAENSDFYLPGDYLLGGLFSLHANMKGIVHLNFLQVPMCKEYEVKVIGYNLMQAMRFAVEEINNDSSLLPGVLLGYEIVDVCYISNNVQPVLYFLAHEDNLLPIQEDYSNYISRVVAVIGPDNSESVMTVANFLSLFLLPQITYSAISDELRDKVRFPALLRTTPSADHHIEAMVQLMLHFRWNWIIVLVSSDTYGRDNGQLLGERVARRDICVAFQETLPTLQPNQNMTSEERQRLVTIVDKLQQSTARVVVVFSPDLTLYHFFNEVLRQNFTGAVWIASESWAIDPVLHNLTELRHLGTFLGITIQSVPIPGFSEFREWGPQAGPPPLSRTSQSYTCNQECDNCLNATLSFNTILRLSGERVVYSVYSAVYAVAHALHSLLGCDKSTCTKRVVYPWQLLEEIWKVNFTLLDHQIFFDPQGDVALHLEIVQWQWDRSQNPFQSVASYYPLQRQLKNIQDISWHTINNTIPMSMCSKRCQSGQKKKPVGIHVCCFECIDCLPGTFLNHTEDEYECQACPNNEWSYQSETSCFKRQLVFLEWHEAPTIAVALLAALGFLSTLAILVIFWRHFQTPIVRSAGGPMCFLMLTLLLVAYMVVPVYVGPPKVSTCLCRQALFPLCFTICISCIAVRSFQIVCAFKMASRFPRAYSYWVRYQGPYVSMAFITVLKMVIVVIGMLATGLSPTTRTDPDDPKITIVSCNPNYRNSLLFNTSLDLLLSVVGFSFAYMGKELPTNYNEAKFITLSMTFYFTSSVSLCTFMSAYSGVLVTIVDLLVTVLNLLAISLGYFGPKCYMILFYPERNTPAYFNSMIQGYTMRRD
T1 sequence (Q7RTX0 21-852): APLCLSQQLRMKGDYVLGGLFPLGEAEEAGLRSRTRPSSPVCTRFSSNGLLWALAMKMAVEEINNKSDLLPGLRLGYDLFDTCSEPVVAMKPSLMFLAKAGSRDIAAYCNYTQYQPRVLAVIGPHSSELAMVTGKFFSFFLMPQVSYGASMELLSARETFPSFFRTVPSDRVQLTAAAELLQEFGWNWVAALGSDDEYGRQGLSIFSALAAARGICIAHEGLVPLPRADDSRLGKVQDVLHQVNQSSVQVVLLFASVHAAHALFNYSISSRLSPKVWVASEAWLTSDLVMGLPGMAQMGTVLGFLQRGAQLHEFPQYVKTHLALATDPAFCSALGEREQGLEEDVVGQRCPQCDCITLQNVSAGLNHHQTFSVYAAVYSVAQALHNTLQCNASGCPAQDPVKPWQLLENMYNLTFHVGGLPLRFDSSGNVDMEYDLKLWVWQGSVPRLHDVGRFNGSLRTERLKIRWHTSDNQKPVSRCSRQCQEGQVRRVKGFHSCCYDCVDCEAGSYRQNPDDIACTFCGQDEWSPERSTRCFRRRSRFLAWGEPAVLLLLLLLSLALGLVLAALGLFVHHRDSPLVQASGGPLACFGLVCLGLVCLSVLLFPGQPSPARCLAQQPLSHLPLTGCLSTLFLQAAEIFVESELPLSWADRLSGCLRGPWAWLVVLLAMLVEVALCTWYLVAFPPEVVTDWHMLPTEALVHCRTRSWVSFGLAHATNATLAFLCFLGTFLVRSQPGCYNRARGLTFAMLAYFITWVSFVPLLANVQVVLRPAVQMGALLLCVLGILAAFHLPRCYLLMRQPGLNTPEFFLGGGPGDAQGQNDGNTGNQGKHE


Target: T1, human TAS1R2-I234V/TAS1R3-WT
Experiment: Calcium mobilisation assay, TAS1R2 variant I234V with TAS1R3-WT
Format: cell-based
Details: for Max ΔF/F0: maximal signal amplitude
Description: The coding sequences for TAS1R2 and TAS1R3 were commercially synthesised, and the human codon was optimised for expression in human cells. The coding sequences of human TAS1R2 and TAS1R3 were subcloned and inserted into the mammalian expression vectors pcDNA6/myc-HisA and pcDNA4/myc-HisA (Invitrogen; Thermo Fisher Scientific; Illkirch, France) between the EcoRI and NotI restriction sites, generating the plasmids pcDNA6-TAS1R2 and pcDNA4-TAS1R3, respectively. To increase protein expression in mammalian cells, an upstream start codon was used, which was a sequence called MAX, corresponding to the QBI SP163 element also described in pcDNA4-HisMax (Invitrogen; Thermo Fisher Scientific; Illkirch, France). To measure the expression level of the receptor by immunohistochemistry, we used the FLAG sequence ([…]) in the C-terminal position, which encodes the FLAG tag epitope. SNP variants of TAS1R2 and TAS1R3 were constructed based on […], respectively, using site-directed mutagenesis (Genewiz; Leipzig, Germany).
The HEK293T cells were kindly provided by Jay P. Slack (Givaudan Flavors Corporation; Cincinnati, OH, USA). HEK293T cells stably transfected with Gα16gust44 [43, 67] were seeded in poly-D-lysine-coated clear-bottom black 96-well plates (0.35 × 10^5 cells/well) in high-glucose DMEM supplemented with 2 mM GlutaMAX, 10% dialysed foetal bovine serum with penicillin/streptomycin and G418 (400 μg/mL) at 37 °C and 6.3% CO2 in a humidified atmosphere as previously reported. […] As a negative control, HEK293T cells were mock-transfected with the empty expression vector. After a further 24 h of incubation, the HEK293T cells were washed with C1 buffer (130 mM NaCl, 5 mM KCl, 10 mM HEPES pH 7.4 and 2 mM CaCl2). The 96-well plates containing the cells were then stimulated with sweet-tasting compounds. […] Different concentration ranges were tested depending on the sweet compound injected. The Ca^2+ changes were expressed as fractional changes in fluorescent light intensity: ΔF/F = (F − F0)/F0, where F was the fluorescent light intensity at each point, and F0 was the value of emitted fluorescent light prior to stimulus application. To calculate dose–response relationships, the changes in fluorescence upon stimulus application were averaged, mock-subtracted and baseline-corrected. The dose–response data obtained were adjusted using a 4-parameter logistic equation. The half-maximal effective concentrations (EC50 values) and maximal signal amplitudes were calculated using SigmaPlot software (version 15.0) (Systat Software; San Jose, CA, USA).
For in vitro calcium mobilisation assay performed on hTAS1R2-SNPs, hTAS1R3-SNPs and mTAS1R3-I60T, 6 to 7 concentrations were tested for each sweet compound, plus buffer alone. All concentration–receptor combinations were measured in duplicate, and each experiment was repeated at least 4 times (8 wells/concentration). Results were expressed for each concentration as ΔF/F mean ± SEM and represented as dose–response curves.

| EC50 [µM] | R1 = Variant EC50/WT EC50 | Max ΔF/F0 | Molecule |
| --- | --- | --- | --- |
| 510 ± 63 | 0.7 | 0.41 ± 0.02 | CC1=CC(=O)NS(=O)(=O)O1 [Acesulfame K, acesulfame K] |
| 94.7 ± 6.8 | 1.2 | 0.80 ± 0.02 | COc1ccc(CCC(=O)c2c(O)cc(O[C@@H]3O[C@H](CO)[C@@H](O)[C@H](O)[C@H]3O[C@@H]3O[C@@H](C)[C@H](O)[C@@H](O)[C@H]3O)cc2O)cc1O [NHDC, neohesperidin dihydrochalcone] |
| 0.8 ± 0.08 | 1.0 | 0.66 ± 0.02 | COC(=O)[C@H](Cc1ccccc1)NC(=O)[C@H](CC(=O)O)NCCC(C)(C)C [Neotame] |
| 20.1 ± 1.1 | 1.1 | 1.52 ± 0.03 | C=C(C)[C@@H]1CC=C(/C=N/O)CC1 [Perillartine, perillartine] |
| 18.4 ± 0.6 | 1.1 | 1.14 ± 0.01 | C=C1C[C@@]23CC[C@H]4[C@@](C)(CCC[C@@]4(C)C(=O)O[C@@H]4O[C@H](CO)[C@@H](O)[C@H](O[C@@H]5O[C@H](CO)[C@@H](O)[C@H](O)[C@H]5O)[C@H]4O[C@@H]4O[C@H](CO)[C@@H](O)[C@H](O)[C@H]4O)[C@@H]2CC[C@]1(O[C@@H]1O[C@H](CO)[C@@H](O)[C@H](O[C@@H]2O[C@H](CO)[C@@H](O)[C@H](O)[C@H]2O)[C@H]1O[C@@H]1O[C@H](CO)[C@@H](O)[C@H](O)[C@H]1O)C3 [Rebaudioside M, rebaudioside M] |
| 60 ± 7 | 0.7 | 0.75 ± 0.03 | OC[C@H]1O[C@H](O[C@]2(CCl)O[C@H](CCl)[C@@H](O)[C@@H]2O)[C@H](O)[C@@H](O)[C@H]1Cl [Sucralose] |
|  | 1.1 | 1.34 ± 0.05 | brazzein (QDKCKKVYENYPVSKCQLANQCNYDCKLDKHARSGECFYDEKRNLQCICDYCEY; ends and bridges not checked; cysteine pairing not given here; UniProt P56552 1-54, looked up) [sweet-tasting protein obtained by recombinant production using the yeast Pichia pastoris] |
|  | 1.8 | 1.25 ± 0.01 | thaumatin |
| 13.8 ± 0.2 |  |  | thaumatin (protein, Eight disulfides, sweet-tasting plant protein, E957) ATFEIVNRCSYTVWAAASKGDAALDAGGRQLNSGESWTINVEPGTKGGKIWARTDCYFDDSGSGICKTGDCGGLLRCKRFGRPPTTLAEFSLNQYGKDYIDISNIKGFNVPMDFSPTTRGCRGVRCAADIVGQCPAKLKAPGGGCNDACTVFQTSEYCCTTGKCGPTEYSRFFKRLCPDAFSYVLDKPTTVTCPGSSNYRVTFCPTA |

| Molecule | EC50 [µM] | R1 = Variant EC50/WT EC50 | Max ΔF/F0 |
| --- | --- | --- | --- |
| O=S(=O)(O)NC1CCCCC1 [Cyclamate, cyclamate] | 2250 ± 42 |  |  |
| C[C@H](CC[C@@H](O[C@@H]1O[C@H](CO[C@@H]2O[C@H](CO)[C@@H](O)[C@H](O)[C@H]2O)[C@@H](O)[C@H](O)[C@H]1O[C@@H]1O[C@H](CO)[C@@H](O)[C@H](O)[C@H]1O)C(C)(C)O)[C@H]1CC[C@@]2(C)[C@@H]3CC=C4[C@@H](CC[C@H](O[C@@H]5O[C@H](CO[C@@H]6O[C@H](CO)[C@@H](O)[C@H](O)[C@H]6O)[C@@H](O)[C@H](O)[C@H]5O)C4(C)C)[C@]3(C)[C@H](O)C[C@]12C [Mogroside V, mogroside V] | 19.4 ± 1.6 | 1.1 | 1.28 ± 0.04 |
